Key:
Conditions in all cases: Compound concentration 10 µM
[1] = biological target: T1, Alpha-1B adrenergic receptor (Homo sapiens) (UniProt P35368)
T1 sequence (whole entry): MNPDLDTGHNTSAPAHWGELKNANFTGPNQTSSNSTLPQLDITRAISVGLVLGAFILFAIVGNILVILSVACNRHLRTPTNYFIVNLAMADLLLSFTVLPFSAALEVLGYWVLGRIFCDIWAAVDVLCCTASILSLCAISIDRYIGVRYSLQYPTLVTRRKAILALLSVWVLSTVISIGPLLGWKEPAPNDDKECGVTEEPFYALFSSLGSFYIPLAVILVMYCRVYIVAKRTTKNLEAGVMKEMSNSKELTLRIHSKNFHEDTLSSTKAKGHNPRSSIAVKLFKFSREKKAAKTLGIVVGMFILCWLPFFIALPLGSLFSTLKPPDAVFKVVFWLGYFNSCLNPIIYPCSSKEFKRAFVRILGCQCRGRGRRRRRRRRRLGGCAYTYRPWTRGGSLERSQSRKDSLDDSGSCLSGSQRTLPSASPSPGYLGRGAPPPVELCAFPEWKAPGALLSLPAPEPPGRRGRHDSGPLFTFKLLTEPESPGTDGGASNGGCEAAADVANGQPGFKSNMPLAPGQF
Description: PDSP Primary Binding target: ADRA1B - Compounds are tested at 10 uM concentration, plate are incubated at room temperature in the dark for 90 minutes. Reaction are stopped by vacuum filtration onto 0.3% polyethyleneimine soaked filter mats using Filtermate harvester. Scintilation cocktail is then melted onto microwave-dried filters on a hot plate and the radio activity is counted in Microbia counter.

[2] = biological target: 5-hydroxytryptamine receptor 2B (Homo sapiens) (UniProt P41595)
Description: PDSP Primary Binding target: HTR2B - Compounds are tested at 10 uM concentration, plate are incubated at room temperature in the dark for 90 minutes. Reaction are stopped by vacuum filtration onto 0.3% polyethyleneimine soaked filter mats using Filtermate harvester. Scintilation cocktail is then melted onto microwave-dried filters on a hot plate and the radio activity is counted in Microbia counter.

[3] = biological target: Sodium-dependent dopamine transporter (Homo sapiens) (UniProt Q01959)
Description: PDSP Primary Binding target: SLC6A3 - Compounds are tested at 10 uM concentration, plate are incubated at room temperature in the dark for 90 minutes. Reaction are stopped by vacuum filtration onto 0.3% polyethyleneimine soaked filter mats using Filtermate harvester. Scintilation cocktail is then melted onto microwave-dried filters on a hot plate and the radio activity is counted in Microbia counter.

[4] = biological target: T2, Alpha-1D adrenergic receptor (Homo sapiens) (UniProt P25100)
T2 sequence (whole entry): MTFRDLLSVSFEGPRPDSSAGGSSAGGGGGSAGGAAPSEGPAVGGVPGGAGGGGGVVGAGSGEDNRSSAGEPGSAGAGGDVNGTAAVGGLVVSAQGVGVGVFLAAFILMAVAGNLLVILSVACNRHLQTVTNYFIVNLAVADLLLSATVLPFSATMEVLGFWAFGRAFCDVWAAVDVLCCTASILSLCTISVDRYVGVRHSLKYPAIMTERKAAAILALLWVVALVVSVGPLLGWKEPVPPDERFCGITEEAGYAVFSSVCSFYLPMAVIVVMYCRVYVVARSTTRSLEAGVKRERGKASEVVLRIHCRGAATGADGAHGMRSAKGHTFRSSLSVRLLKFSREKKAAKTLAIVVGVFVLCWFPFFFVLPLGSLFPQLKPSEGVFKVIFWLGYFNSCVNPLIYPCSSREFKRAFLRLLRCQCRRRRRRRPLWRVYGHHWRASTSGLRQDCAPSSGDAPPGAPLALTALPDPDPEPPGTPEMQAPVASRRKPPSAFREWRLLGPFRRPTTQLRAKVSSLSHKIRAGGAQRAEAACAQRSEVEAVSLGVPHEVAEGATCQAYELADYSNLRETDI
Description: PDSP Primary Binding target: ADRA1D - Compounds are tested at 10 uM concentration, plate are incubated at room temperature in the dark for 90 minutes. Reaction are stopped by vacuum filtration onto 0.3% polyethyleneimine soaked filter mats using Filtermate harvester. Scintilation cocktail is then melted onto microwave-dried filters on a hot plate and the radio activity is counted in Microbia counter.

[5] = biological target: T3, Muscarinic acetylcholine receptor M2 (Homo sapiens) (UniProt P08172)
T3 sequence (whole entry): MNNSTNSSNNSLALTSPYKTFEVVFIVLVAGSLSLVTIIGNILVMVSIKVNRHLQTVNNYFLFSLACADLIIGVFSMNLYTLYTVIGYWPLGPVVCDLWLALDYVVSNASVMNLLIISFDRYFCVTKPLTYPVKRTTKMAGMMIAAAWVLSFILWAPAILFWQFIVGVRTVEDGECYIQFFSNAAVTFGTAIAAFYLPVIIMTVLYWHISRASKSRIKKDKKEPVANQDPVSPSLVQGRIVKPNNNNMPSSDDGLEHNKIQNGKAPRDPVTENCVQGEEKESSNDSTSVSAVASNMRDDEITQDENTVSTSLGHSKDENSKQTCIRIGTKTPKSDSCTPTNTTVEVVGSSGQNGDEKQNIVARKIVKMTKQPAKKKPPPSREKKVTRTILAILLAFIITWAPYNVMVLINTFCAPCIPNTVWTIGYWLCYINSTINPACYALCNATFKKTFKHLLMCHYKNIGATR
Description: PDSP Primary Binding target: CHRM2 - Compounds are tested at 10 uM concentration, plate are incubated at room temperature in the dark for 90 minutes. Reaction are stopped by vacuum filtration onto 0.3% polyethyleneimine soaked filter mats using Filtermate harvester. Scintilation cocktail is then melted onto microwave-dried filters on a hot plate and the radio activity is counted in Microbia counter.

[6] = biological target: T4, 5-hydroxytryptamine receptor 3A (Homo sapiens) (UniProt P46098)
T4 sequence (whole entry): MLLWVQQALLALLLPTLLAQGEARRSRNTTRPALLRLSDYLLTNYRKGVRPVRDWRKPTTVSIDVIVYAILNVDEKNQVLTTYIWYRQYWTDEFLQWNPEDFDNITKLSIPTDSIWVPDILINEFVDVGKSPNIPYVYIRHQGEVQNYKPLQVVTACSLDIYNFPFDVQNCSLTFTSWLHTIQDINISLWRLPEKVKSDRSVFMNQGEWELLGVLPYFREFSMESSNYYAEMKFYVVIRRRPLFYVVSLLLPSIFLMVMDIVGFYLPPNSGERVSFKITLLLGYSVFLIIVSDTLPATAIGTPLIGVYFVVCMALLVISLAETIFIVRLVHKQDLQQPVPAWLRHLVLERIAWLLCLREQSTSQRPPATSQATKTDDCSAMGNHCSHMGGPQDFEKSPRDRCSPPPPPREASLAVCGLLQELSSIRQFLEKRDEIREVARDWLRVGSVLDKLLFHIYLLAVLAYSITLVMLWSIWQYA
Description: PDSP Primary Binding target: HTR3A - Compounds are tested at 10 uM concentration, plate are incubated at room temperature in the dark for 90 minutes. Reaction are stopped by vacuum filtration onto 0.3% polyethyleneimine soaked filter mats using Filtermate harvester. Scintilation cocktail is then melted onto microwave-dried filters on a hot plate and the radio activity is counted in Microbia counter.

[7] = biological target: Beta-1 adrenergic receptor (Homo sapiens) (UniProt P08588)
Description: PDSP Primary Binding target: ADRB1 - Compounds are tested at 10 uM concentration, plate are incubated at room temperature in the dark for 90 minutes. Reaction are stopped by vacuum filtration onto 0.3% polyethyleneimine soaked filter mats using Filtermate harvester. Scintilation cocktail is then melted onto microwave-dried filters on a hot plate and the radio activity is counted in Microbia counter.

[8] = biological target: Sigma non-opioid intracellular receptor 1 (Homo sapiens) (UniProt Q99720)
Description: PDSP Primary Binding target: SIGMAR1 - Compounds are tested at 10 uM concentration, plate are incubated at room temperature in the dark for 90 minutes. Reaction are stopped by vacuum filtration onto 0.3% polyethyleneimine soaked filter mats using Filtermate harvester. Scintilation cocktail is then melted onto microwave-dried filters on a hot plate and the radio activity is counted in Microbia counter.

[9] = biological target: Muscarinic acetylcholine receptor M3 (Homo sapiens) (UniProt P20309)
Description: PDSP Primary Binding target: CHRM3 - Compounds are tested at 10 uM concentration, plate are incubated at room temperature in the dark for 90 minutes. Reaction are stopped by vacuum filtration onto 0.3% polyethyleneimine soaked filter mats using Filtermate harvester. Scintilation cocktail is then melted onto microwave-dried filters on a hot plate and the radio activity is counted in Microbia counter.

[10] = biological target: 5-hydroxytryptamine receptor 5A (Homo sapiens) (UniProt P47898)
Description: PDSP Primary Binding target: HTR5A - Compounds are tested at 10 uM concentration, plate are incubated at room temperature in the dark for 90 minutes. Reaction are stopped by vacuum filtration onto 0.3% polyethyleneimine soaked filter mats using Filtermate harvester. Scintilation cocktail is then melted onto microwave-dried filters on a hot plate and the radio activity is counted in Microbia counter.

[11] = biological target: Histamine H3 receptor (Homo sapiens) (UniProt Q9Y5N1)
Chain of Histamine H3 receptor (Homo sapiens) (Q9Y5N1 whole entry): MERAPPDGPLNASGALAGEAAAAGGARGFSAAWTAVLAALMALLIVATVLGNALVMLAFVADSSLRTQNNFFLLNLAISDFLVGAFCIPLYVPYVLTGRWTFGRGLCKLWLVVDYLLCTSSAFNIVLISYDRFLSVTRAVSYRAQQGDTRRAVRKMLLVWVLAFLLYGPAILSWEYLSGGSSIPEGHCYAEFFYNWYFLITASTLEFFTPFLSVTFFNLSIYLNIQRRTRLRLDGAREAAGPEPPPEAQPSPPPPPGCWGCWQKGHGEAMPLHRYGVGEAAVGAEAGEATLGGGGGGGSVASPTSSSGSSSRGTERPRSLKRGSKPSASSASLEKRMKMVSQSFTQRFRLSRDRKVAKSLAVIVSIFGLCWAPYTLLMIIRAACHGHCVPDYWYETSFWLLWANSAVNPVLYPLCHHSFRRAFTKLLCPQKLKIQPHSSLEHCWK
Description: PDSP Primary Binding target: HRH3 - Compounds are tested at 10 uM concentration, plate are incubated at room temperature in the dark for 90 minutes. Reaction are stopped by vacuum filtration onto 0.3% polyethyleneimine soaked filter mats using Filtermate harvester. Scintilation cocktail is then melted onto microwave-dried filters on a hot plate and the radio activity is counted in Microbia counter.

Chain of 5-hydroxytryptamine receptor 2B (Homo sapiens) (P41595 whole entry): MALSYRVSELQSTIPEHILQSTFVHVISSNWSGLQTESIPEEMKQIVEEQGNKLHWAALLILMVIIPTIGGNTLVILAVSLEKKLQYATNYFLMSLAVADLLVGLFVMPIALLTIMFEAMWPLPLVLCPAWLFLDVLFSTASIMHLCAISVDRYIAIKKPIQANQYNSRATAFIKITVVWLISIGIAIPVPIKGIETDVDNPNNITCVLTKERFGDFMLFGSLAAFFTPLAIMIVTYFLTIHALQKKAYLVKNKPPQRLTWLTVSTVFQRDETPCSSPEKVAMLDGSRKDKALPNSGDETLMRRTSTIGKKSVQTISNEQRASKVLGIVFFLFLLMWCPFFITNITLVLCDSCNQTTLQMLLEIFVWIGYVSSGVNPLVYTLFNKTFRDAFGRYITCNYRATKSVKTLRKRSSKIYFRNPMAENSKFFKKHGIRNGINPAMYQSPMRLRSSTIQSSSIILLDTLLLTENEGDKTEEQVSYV
Chain of Beta-1 adrenergic receptor (Homo sapiens) (P08588 whole entry, looked up): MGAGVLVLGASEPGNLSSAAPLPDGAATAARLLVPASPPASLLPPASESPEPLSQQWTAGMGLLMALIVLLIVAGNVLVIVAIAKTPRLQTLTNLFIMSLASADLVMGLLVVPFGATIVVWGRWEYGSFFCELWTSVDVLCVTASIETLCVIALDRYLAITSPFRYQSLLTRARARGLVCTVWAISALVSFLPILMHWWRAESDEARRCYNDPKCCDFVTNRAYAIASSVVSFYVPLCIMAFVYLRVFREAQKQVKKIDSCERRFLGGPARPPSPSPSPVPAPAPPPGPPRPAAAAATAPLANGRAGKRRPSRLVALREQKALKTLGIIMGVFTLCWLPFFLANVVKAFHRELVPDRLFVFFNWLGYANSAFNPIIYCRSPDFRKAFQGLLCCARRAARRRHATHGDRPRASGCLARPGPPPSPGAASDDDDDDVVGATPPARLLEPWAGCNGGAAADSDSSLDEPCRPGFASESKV
Chain of 5-hydroxytryptamine receptor 5A (Homo sapiens) (P47898 whole entry): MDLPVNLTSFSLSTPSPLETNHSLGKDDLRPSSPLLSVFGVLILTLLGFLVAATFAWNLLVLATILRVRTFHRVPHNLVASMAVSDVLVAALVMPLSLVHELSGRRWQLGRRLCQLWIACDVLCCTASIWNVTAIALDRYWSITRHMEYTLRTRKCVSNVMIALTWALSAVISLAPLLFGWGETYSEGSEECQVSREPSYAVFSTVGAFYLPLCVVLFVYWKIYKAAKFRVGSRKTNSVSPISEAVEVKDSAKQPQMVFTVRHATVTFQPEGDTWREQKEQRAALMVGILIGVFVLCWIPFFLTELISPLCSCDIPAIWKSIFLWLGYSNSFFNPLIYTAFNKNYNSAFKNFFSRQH
Chain of Sigma non-opioid intracellular receptor 1 (Homo sapiens) (Q99720 whole entry): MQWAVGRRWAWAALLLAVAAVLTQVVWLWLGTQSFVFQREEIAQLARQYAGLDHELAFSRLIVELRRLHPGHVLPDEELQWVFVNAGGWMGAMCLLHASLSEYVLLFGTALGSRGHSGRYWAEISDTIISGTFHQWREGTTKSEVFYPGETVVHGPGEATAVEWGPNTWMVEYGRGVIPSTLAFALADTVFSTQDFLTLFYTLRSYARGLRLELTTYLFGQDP
Chain of Sodium-dependent dopamine transporter (Homo sapiens) (Q01959 whole entry): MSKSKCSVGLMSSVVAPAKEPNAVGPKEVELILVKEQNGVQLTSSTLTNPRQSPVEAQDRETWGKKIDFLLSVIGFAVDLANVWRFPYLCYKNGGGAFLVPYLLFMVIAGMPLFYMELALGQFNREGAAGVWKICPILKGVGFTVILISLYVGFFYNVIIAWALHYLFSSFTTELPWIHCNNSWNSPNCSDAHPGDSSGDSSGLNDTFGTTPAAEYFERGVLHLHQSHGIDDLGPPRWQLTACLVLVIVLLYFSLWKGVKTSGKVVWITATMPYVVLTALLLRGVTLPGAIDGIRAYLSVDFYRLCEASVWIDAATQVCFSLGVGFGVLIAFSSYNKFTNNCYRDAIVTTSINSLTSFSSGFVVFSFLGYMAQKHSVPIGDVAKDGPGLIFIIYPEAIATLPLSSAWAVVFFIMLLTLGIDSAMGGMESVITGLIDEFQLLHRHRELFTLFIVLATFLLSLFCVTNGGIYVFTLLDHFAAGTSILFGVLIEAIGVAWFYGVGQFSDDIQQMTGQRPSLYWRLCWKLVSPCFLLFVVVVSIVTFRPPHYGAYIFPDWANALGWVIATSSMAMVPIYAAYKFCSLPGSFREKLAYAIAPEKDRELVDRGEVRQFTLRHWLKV
Chain of Muscarinic acetylcholine receptor M3 (Homo sapiens) (P20309 whole entry, looked up): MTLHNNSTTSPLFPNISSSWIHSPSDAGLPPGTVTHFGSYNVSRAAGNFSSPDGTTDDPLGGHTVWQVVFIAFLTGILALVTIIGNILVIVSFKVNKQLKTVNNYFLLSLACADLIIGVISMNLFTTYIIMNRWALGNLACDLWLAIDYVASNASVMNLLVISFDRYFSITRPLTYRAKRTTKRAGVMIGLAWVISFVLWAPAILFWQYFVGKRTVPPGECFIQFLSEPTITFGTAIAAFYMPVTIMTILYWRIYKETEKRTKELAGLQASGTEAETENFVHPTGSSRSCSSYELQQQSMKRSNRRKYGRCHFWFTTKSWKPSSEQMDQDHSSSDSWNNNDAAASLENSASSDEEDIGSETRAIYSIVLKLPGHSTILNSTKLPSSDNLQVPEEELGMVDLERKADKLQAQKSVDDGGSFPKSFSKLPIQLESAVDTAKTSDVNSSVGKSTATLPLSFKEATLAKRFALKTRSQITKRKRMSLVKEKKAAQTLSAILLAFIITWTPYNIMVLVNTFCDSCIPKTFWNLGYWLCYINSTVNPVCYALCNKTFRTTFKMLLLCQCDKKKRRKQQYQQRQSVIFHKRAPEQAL

Row | SMILES | inhibition [1] | inhibition [2] | inhibition [3] | inhibition [4] | inhibition [5] | inhibition [6] | inhibition [7] | inhibition [8] | inhibition [9] | inhibition [10] | inhibition [11]
1 | NC[C@H](O)c1ccc(O)c(O)c1 | 37.9% | 24.8% | 21.8% | 64.8% | -6.81% | -8.31% | 66.2% | 39.1% |  |  | 
2 | CCCCCCCCCCCCC/C=C/[C@@H](O)[C@@H](N)COP(=O)(O)O | -1.45% | 11.5% |  | 9.46% | -7.68% | -1.93% | 0.96% | 63.8% | 9.29% | -4.35% | 6.7%
3 | CC(C)NCC(O)COc1cccc2[nH]ccc12 (stereo not given) | 6.47% | 39.4% | 21.3% | 13.6% | -9.11% | -0.98% | 70.9% | 38.7% |  | 52.6% | 
4 | Cc1ccc(O)c([C@H](CCN(C(C)C)C(C)C)c2ccccc2)c1 | 17.4% | 32.5% | 16.2% | 1.72% | 97.6% | -0.33% | -3.65% | 90.9% | 99.8% |  | 4.65%
5 | O=C(O)Cn1c(C(=O)Nc2nc(-c3ccccc3Cl)cs2)cc2ccccc21 | -9.67% | 0.94% | 47.6% | -3.75% | 0.82% |  | 30.9% | 9.14% | 0.53% | 18.6% | -1.46%
6 | COc1cc2nc(N3CCN(C(=O)c4ccco4)CC3)nc(N)c2cc1OC | 0% | 54.3% | 29.4% | 0% | 15.9% | 2.09% | 2.66% | 68% |  | 83.4% | 8.21%
7 | CN[C@@H]1CCc2[nH]c3ccc(C(N)=O)cc3c2C1 | 93.5% | 6.12% |  | 19.6% | 10.5% | 24.7% | 1.5% | 42.1% | 15.7% | 9.03% | 11.7%
8 | O=c1ccc2ccc(OCCCCN3CCN(c4cccc5sccc45)CC3)cc2[nH]1 | 97.3% | 96% | 88.2% | 92.5% | -3.44% | 81.9% |  |  | 21.4% | 93.1% | 54.5%
9 | CC1(C)SSC(C)(C)[C@@H](NC(=O)[C@@H](N)Cc2ccc(O)cc2)C(=O)NCC(=O)N[C@@H](Cc2ccccc2)C(=O)N[C@H]1C(=O)O | 8.91% | 24.7% | 27.3% |  | -9.99% |  | -5.41% | 21.7% | -1.79% | -9.01% | -2.58%
10 | CN1C[C@H](C(=O)N[C@]2(C)O[C@@]3(O)[C@@H]4CCCN4C(=O)[C@H](Cc4ccccc4)N3C2=O)C[C@@H]2c3cccc4[nH]cc(c34)C[C@H]21 | 93.8% | 82.8% | 5.72% | 102% | 4.48% | 1.05% | 17.8% | 72.9% |  | 97.6% | 38.2%
11 | COc1ccccc1N1CCN(CCCCNC(=O)c2ccc3ccccc3c2)CC1 | 96.8% | 97% | 73.9% | 94% | 7.22% | 0.02% |  | 90.4% | 3.09% | 76.4% | 49.6%
12 | C[N+]1(C)[C@@H]2C[C@@H](OC(=O)C(O)(c3cccs3)c3cccs3)C[C@H]1[C@@H]1O[C@@H]12 | -7.35% | 11.5% | -2.43% | 13.1% | 94.2% | 14.3% | 7.61% | 32.7% | 99.2% | 2.25% | 
